From paper PMC11012124, “Synthesis of Novel Triazine-Based Chalcones and 8,9-dihydro-7H-pyrimido[4,5-b][1,4]diazepines as Potential Leads in the Search of Anticancer, Antibacterial and Antifungal Agents” (International Journal of Molecular Sciences, 2024)

Experiments:
[1] = test system: UACC-62; assay: cells; conditions: Homo sapiens, UACC-62, 48 h; for CC50: read-out: LC50
[2] = test system: SF-539; assay: cells; conditions: Homo sapiens, SF-539, 48 h; for CC50: read-out: LC50, SF-539, 48 h
[3] = test system: HS 578T; assay: cells; conditions: Homo sapiens, 48 h; for CC50: read-out: LC50
[4] = test system: U251; assay: cells; conditions: Homo sapiens, U-251, 48 h; for GI50: U251, 48 h; for CC50: read-out: LC50
[5] = test system: MDA-MB-231/ATCC; assay: cells; conditions: Homo sapiens, MDA-MB-231, 48 h; for CC50: read-out: LC50
[6] = test system: SNB-75; assay: cells; conditions: Homo sapiens, SNB-75, 48 h; for CC50: read-out: LC50
[7] = test system: HOP-62; assay: cells; conditions: Homo sapiens, HOP-62, 48 h; for CC50: read-out: LC50
[8] = test system: A549/ATCC; assay: cells; conditions: Homo sapiens, A549, 48 h; for CC50: read-out: LC50
[9] = test system: ACHN; assay: cells; conditions: Homo sapiens, 48 h; for CC50: read-out: LC50
[10] = test system: T-47D; assay: cells; conditions: Homo sapiens, T47D, 48 h; for CC50: read-out: LC50
[11] = test system: RXF 393; assay: cells; conditions: Homo sapiens, RXF 393, 48 h; for CC50: read-out: LC50
[12] = test system: UO-31; assay: cells; conditions: Homo sapiens, UO-31, 48 h; for CC50: read-out: LC50
[13] = test system: KM12; assay: cells; conditions: Homo sapiens, KM12, 48 h; for CC50: read-out: LC50
[14] = test system: MALME-3M; assay: cells; conditions: Homo sapiens, 48 h; for CC50: read-out: LC50
[15] = test system: COLO 205; assay: cells; conditions: Homo sapiens, COLO 205, 48 h; for CC50: read-out: LC50
[16] = test system: PC-3; assay: cells; conditions: Homo sapiens, PC-3, 48 h; for CC50: read-out: LC50
[17] = test system: MOLT-4; assay: cells; conditions: Homo sapiens, MOLT-4, 48 h; for CC50: read-out: LC50
[18] = test system: BT-549; assay: cells; conditions: Homo sapiens, BT-549, 48 h; for CC50: read-out: LC50
[19] = test system: HT29; assay: cells; conditions: Homo sapiens, HT-29, 48 h; for CC50: read-out: LC50
[20] = test system: NCI-H522; assay: cells; conditions: Homo sapiens, NCI-H522, 48 h; for CC50: read-out: LC50
[21] = test system: HCT-116; assay: cells; conditions: Homo sapiens, HCT-116, 48 h; for CC50: read-out: LC50
[22] = test system: DU-145; assay: cells; conditions: Homo sapiens, DU-145, 48 h; for CC50: read-out: LC50
[23] = test system: SK-OV-3; assay: cells; conditions: Homo sapiens, SK-OV-3, 48 h; for CC50: read-out: LC50
[24] = test system: HCC-2998; assay: cells; conditions: Homo sapiens, HCC 2998, 48 h; for CC50: read-out: LC50
[25] = test system: 60 cancer cell lines; assay: NCI-60 one-dose screen (10 μM); assay type: cell-based; conditions: Homo sapiens; one dose of 10 μM, mean over 60 cancer cell lines; read-out: Mean Growth Percent (MGP)
Excerpt: Additionally, the mean of the growth percentages (MGP) of each compound against all the 60 cancer cell lines is also reported, which is used as one of the selection criteria to continue with tests at five concentration doses.

[26] = test system: MDA-MB-468; assay: cells; conditions: Homo sapiens, MDA-MB-468, 48 h; for CC50: read-out: LC50
[27] = test system: SK-MEL-28; assay: cells; conditions: Homo sapiens, SK-MEL-28, 48 h; for CC50: read-out: LC50
[28] = test system: SW-620; assay: cells; conditions: Homo sapiens, SW-620, 48 h; for CC50: read-out: LC50
[29] = test system: RPMI-8226; assay: cells; conditions: Homo sapiens, RPMI-8226, 48 h; for CC50: read-out: LC50
[30] = test system: NCI-H322M; assay: cells; conditions: Homo sapiens, 48 h; for CC50: read-out: LC50
[31] = test system: HCT-15; assay: cells; conditions: Homo sapiens, HCT-15, 48 h; for CC50: read-out: LC50
[32] = test system: M14; assay: cells; conditions: Homo sapiens, M14, 48 h; for CC50: read-out: LC50
[33] = test system: SNB-19; assay: cells; conditions: Homo sapiens, SNB-19, 48 h; for CC50: read-out: LC50
[34] = test system: OVCAR-8; assay: cells; conditions: Homo sapiens, OVCAR-8, 48 h; for CC50: read-out: LC50
[35] = Hemolytic activity, spectrophotometric; assay type: cell-based, human; conditions: human, human red blood cells (huRBC), 5% hematocrit, 200 μg/mL, 37 °C
[36] = test system: CAKI-1; assay: cells; conditions: Homo sapiens, CAKI-1, 48 h; for CC50: read-out: LC50
[37] = test system: EKVX; assay: cells; conditions: Homo sapiens, 48 h; for CC50: read-out: LC50

## CN(C)c1nc(NCCNS(=O)(=O)c2ccc(C(=O)/C=C/c3ccc(C(F)(F)F)cc3)cc2)nc(Nc2ccc(F)cc2)n1 [24g]
[1]
  GI50: 6.24 µM
  CC50: 19.4 µM
[2]
  GI50: 10.7 µM
  CC50: 22.5 µM
[3]
  GI50: 12.7 µM
  CC50: 49.5 µM
[4]
  GI50: 3.42 µM
  CC50: 13 µM
[5]
  GI50: 8.38 µM
  CC50: 20.8 µM
[6]
  GI50: 8.41 µM
  CC50: 22.7 µM
[7]
  GI50: 13.6 µM
  CC50: 27.7 µM
[8]
  GI50: 10 µM
  CC50: 25.4 µM
[9]
  GI50: 5.08 µM
  CC50: 17.4 µM
[10]
  GI50: 5.16 µM
  CC50: 19.6 µM
[11]
  GI50: 3.7 µM
  CC50: 16 µM
[12]
  GI50: 6.41 µM
  CC50: 19.9 µM
[13]
  GI50: 2.38 µM
  CC50: 6 µM
[14]
  GI50: 14.2 µM
  CC50: 27.5 µM
[15]
  GI50: 11.2 µM
  CC50: 24.8 µM
[16]
  GI50: 4.15 µM
  CC50: 18.2 µM
[17]
  GI50: 2.9 µM
  CC50: 9.61 µM
[18]
  GI50: 12.7 µM
  CC50: 25.6 µM
[19]
  GI50: 1.91 µM
  CC50: 3.95 µM
[20]
  GI50: 11.2 µM
  CC50: 24.7 µM
[21]
  GI50: 1.68 µM
  CC50: 3.13 µM
[22]
  GI50: 11.2 µM
  CC50: 24 µM
[23]
  GI50: 13.7 µM
  CC50: 27.8 µM
[24]
  GI50: 1.77 µM
  CC50: 3.61 µM
[25]
  activity at 10 µM: -27.2%
[26]
  GI50: 4.53 µM
  CC50: 17 µM
[27]
  GI50: 10.4 µM
  CC50: 22.2 µM
[28]
  GI50: 2.24 µM
  CC50: 5.06 µM
[29]
  GI50: 3 µM
  CC50: > 100 µM
[30]
  GI50: 11.6 µM
  CC50: 24.3 µM
[31]
  GI50: 3.22 µM
  CC50: 11.9 µM
[32]
  GI50: 3.39 µM
  CC50: 12.9 µM
[33]
  GI50: 12 µM
  CC50: 24.3 µM
[34]
  GI50: 12.3 µM
  CC50: 30.6 µM
[35]
  hemolysis at 24 h, 200 µg/mL: 0.8%
[36]
  GI50: 6.46 µM
  CC50: 19.7 µM
[37]
  GI50: 4.2 µM
  CC50: 15.7 µM

## CN(C)c1nc(NCCNS(=O)(=O)c2ccc(C(=O)/C=C/c3ccc(F)cc3)cc2)nc(Nc2ccc(F)cc2)n1 [24f]
[1]
  GI50: 3.57 µM
  CC50: 14.6 µM
[2]
  GI50: 2.52 µM
  CC50: 6.78 µM
[3]
  GI50: 6.3 µM
  CC50: 71.5 µM
[4]
  GI50: 1.99 µM
  CC50: 4.41 µM
[5]
  GI50: 2.64 µM
  CC50: 8.39 µM
[6]
  GI50: 2.88 µM
  CC50: 16 µM
[7]
  GI50: 8.39 µM
  CC50: 23.5 µM
[8]
  GI50: 3.41 µM
  CC50: 14.2 µM
[9]
  GI50: 3.13 µM
  CC50: 10.9 µM
[10]
  GI50: 3.02 µM
  CC50: 11.7 µM
[11]
  GI50: 2.26 µM
  CC50: 7.51 µM
[12]
  GI50: 2.9 µM
  CC50: 11.9 µM
[13]
  GI50: 2 µM
  CC50: 4.41 µM
[14]
  GI50: 3.42 µM
  CC50: 12.4 µM
[15]
  GI50: 2.38 µM
  CC50: 6.56 µM
[16]
  GI50: 2.76 µM
  CC50: 10.6 µM
[17]
  GI50: 2.5 µM
  CC50: 6.49 µM
[18]
  GI50: 4.87 µM
  CC50: 17.1 µM
[19]
  GI50: 1.9 µM
  CC50: 3.65 µM
[20]
  GI50: 2.81 µM
  CC50: 8.9 µM
[21]
  GI50: 1.6 µM
  CC50: 3.01 µM
[22]
  GI50: 3.94 µM
  CC50: 14 µM
[23]
  GI50: 8.23 µM
  CC50: 21.6 µM
[24]
  GI50: 1.8 µM
  CC50: 3.45 µM
[25]
  activity at 10 µM: -70.5%
[26]
  GI50: 2.55 µM
  CC50: 8.09 µM
[27]
  GI50: 3.6 µM
  CC50: 13.7 µM
[28]
  GI50: 1.9 µM
  CC50: 4.02 µM
[29]
  GI50: 2.42 µM
  CC50: 6.92 µM
[30]
  GI50: 4.24 µM
  CC50: 17.8 µM
[31]
  GI50: 1.99 µM
  CC50: 4.28 µM
[32]
  GI50: 2.6 µM
  CC50: 8.28 µM
[33]
  GI50: 4.58 µM
  CC50: 16.8 µM
[34]
  GI50: 3.42 µM
  CC50: 13.9 µM
[35]
  hemolysis at 24 h, 200 µg/mL: 9.9%
[36]
  GI50: 3.01 µM
  CC50: 12.7 µM
[37]
  GI50: 2.95 µM
  CC50: 10.9 µM
